Test results published in patent US8263615B2, “Bis-heterocyclic imidazolyl compounds” (Novartis AG, priority 2005, dated 2012).

What was measured:
[1] = system: plasma corticosterone; assay: in vivo suppression of plasma corticosterone levels in ACTH-stimulated rats; design: species or system Wistar rats; details: rat plasma, 4 mg/kg p.o., 2 h after dosing vs 1 h before dosing
Description: (§1) The aldosterone- and corticosterone-suppressing activity of herein described compounds may be assessed with the following in vivo protocol.
(§2) Adult male Wistar rats weighing between 250 and 350 grams are kept under the usual 12 hour light and 12 hour dark conditions at a temperature of 23° C.±2° C. On the first day of the experiment, the animals receive a subcutaneous injection of a depot ACTH product in a dose of 1.0 mg/kg weight (SYNACTEN-Depot, Novartis, Basel, CH) 16 hours prior to the administration of a test compound. […] An alternative method to stimulate aldosterone secretion consists in subjecting rats to a low salt diet for 48 hours and applying the diuretic furosemide at 10 mg/kg by subcutaneous or intraperitoneal administration 16 hours, respectively 2 hours prior to the start of the experiment. On the second day of the experiment, the animals are divided into test groups of 5 animals and subjected to a first bleed 1 hour prior to the administration of test compound. Subsequently, and 16 hours after the injection of the ACTH product, the animals receive either vehicle or test compound dissolved in vehicle in a variable dose range from 0.02 to 20 mg/kg by oral gavage. The animals are bled two more times from the vena subclavia under isoflurane anesthesia 2 and 6 hours after dosing. The blood is collected in heparin-treated tubes. The plasma samples are obtained by centrifugation and stored at −20° C. An alternative method to bleed animals time-dependently consists in using animals that are chronically carotid catheterized which allows the periodical sampling of up to 0.2 ml of blood using an AccuSampler (DiLab Europe, Lund, Sweden). The blood sampling with the AccuSampler may occur 1 hour prior to the administration of a test compound and 2, 4, 6, 8, 12, 16 and 24 hours thereafter. The blood samples are anti-coagulated with heparin and centrifuged. The aldosterone and corticosterone concentrations of the plasma samples can be determined with a radioimmunoassay as described above for the in vitro test systems.
(§3) The selective suppression of plasma steroid levels as for instance aldosterone in comparison to corticosterone may serve as a measure for in vivo bioavailability and pharmacodynamic enzyme inhibitory activity of the herein described compounds. The evaluation of the data may occur relative to the application of vehicle or quantitatively by determination of the area under the curve (AUC).

[2] = system: plasma aldosterone; assay: in vivo suppression of plasma aldosterone levels in ACTH-stimulated rats; design: species or system Wistar rats; details: rat plasma, 4 mg/kg p.o., 2 h after dosing vs 1 h before dosing
Description: as §1, §2, §3

| SMILES | Corticosterone levels (% change at 2 h) [1] | Aldosterone levels (% change at 2 h) [2] |
| --- | --- | --- |
| Fc1ccc(C2CCn3cncc32)cc1F (stereo not shown) [Example 2, 7-(3,4-Difluorophenyl)-6,7-dihydro-5H-pyrrolo[1,2-c]imidazole] | −32% | −49% |
| CC(=O)c1ccc(C2CCn3cncc32)cc1 (stereo not shown) [Example 3, 1-[4-(6,7-Dihydro-5H-pyrrolo[1,2-c]imidazol-7-yl)phenyl]ethanone] | −13% | −53% |
| CSc1ccc(C2CCCn3cncc32)cc1 (stereo not shown) [Example 12, 8-(4-Methylsulphanylphenyl)-5,6,7,8-tetrahydroimidazo[1,5-a]pyridine] | 2% | −61% |
| O=[N+]([O-])c1ccccc1C1CCCn2cncc21 (stereo not shown) [Example 13, 8-(2-Nitrophenyl)-5,6,7,8-tetrahydroimidazo[1,5-a]pyridine] | 0% | −62% |
| CC1(C)CCn2cncc2C1c1ccc(C#N)cc1 (stereo not shown) [Example 16, 4-(7,7-Dimethyl-5,6,7,8-tetrahydroimidazo[1,5-a]pyridin-8-yl)benzonitrile] | −3% | −21% |
